Assay results: ChEMBL document CHEMBL1201862, “PubChem BioAssay data set” (2004)
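Grown in 96-well plates, cells were treated for 48 hours with each compound at five concentrations. Insufficient inhibition: endpoint recorded as highest concentration tested. GI50: concentration for 50% inhibition of growth.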 Activity calls are given as the source filed them. Cut-off read from the data, not from the text of the source: active = GI50 up to about 1.1 µM and inactive = higher.

Assays:
Assay in all cases: DTP human tumour cell line panel, 48 h
[1] = system: MCF7
[2] = system: SNB-19
[3] = system: NCI-H460
[4] = system: SR
[5] = system: MDA-MB-435
[6] = system: SK-OV-3
[7] = system: MDA-MB-231
[8] = system: Hs-578T
[9] = system: OVCAR-5
[10] = system: T47D
[11] = system: HOP-92
[12] = system: IGROV-1
[13] = system: CAKI-1
[14] = system: HL-60
[15] = system: MDA-N
[16] = system: HCC 2998
[17] = system: SF-268
[18] = system: MOLT-4
[19] = system: SK-MEL-28
[20] = system: SK-MEL-2

c1ccc(-c2c(-c3cccs3)[nH]c(-c3cccs3)c2-c2ccccn2)nc1
GI50 [1]: > 10 µM (inactive)
GI50 [2]: 33.5 µM (inactive)
GI50 [3]: 21.3 µM (inactive)
GI50 [4]: 26.2 µM (inactive)
GI50 [5]: 15.7 µM (inactive)
GI50 [6]: 21.9 µM (inactive)
GI50 [7]: 20.3 µM (inactive)
GI50 [8]: 33.4 µM (inactive)
GI50 [9]: 30.5 µM (inactive)
GI50 [10]: 18.2 µM (inactive)
GI50 [11]: 25.8 µM (inactive)
GI50 [12]: 22.5 µM (inactive)
GI50 [13]: 37.4 µM (inactive)
GI50 [14]: 26.5 µM (inactive)
GI50 [15]: 0.199 µM (active)
GI50 [16]: 20.2 µM (inactive)
GI50 [17]: 19.7 µM (inactive)
GI50 [18]: 11.7 µM (inactive)

O=C1CC(c2ccccc2Cl)C2(C(=O)NC(=S)NC2=O)C(c2ccccc2Cl)C1 (configuration not stated)
GI50 [1]: 18.3 µM (inactive)
GI50 [2]: 13.2 µM (inactive)
GI50 [3]: 20 µM (inactive)
GI50 [4]: 44 µM (inactive)
GI50 [5]: 14.3 µM (inactive)
GI50 [6]: 43 µM (inactive)
GI50 [19]: 49 µM (inactive)
GI50 [7]: 27.2 µM (inactive)
GI50 [8]: 0.465 µM (active)
GI50 [9]: 42.1 µM (inactive)
GI50 [10]: 45.6 µM (inactive)
GI50 [11]: 0.284 µM (active)
GI50 [12]: 25.9 µM (inactive)
GI50 [14]: 36.5 µM (inactive)
GI50 [15]: 26.8 µM (inactive)
GI50 [20]: 37.1 µM (inactive)
GI50 [16]: 27 µM (inactive)
GI50 [17]: 19 µM (inactive)
GI50 [18]: 54.7 µM (inactive)

CN1CCN(C(=S)N(C(=O)c2ccco2)C2CCCCC2)CC1
GI50 [1]: > 100 µM (inactive)
GI50 [2]: > 100 µM (inactive)
GI50 [3]: > 100 µM (inactive)
GI50 [4]: > 100 µM (inactive)
GI50 [5]: > 100 µM (inactive)
GI50 [19]: > 100 µM (inactive)
GI50 [7]: > 100 µM (inactive)
GI50 [8]: > 100 µM (inactive)
GI50 [9]: > 100 µM (inactive)
GI50 [10]: > 100 µM (inactive)
GI50 [11]: > 100 µM (inactive)
GI50 [12]: > 100 µM (inactive)
GI50 [14]: > 10 µM (inactive)
GI50 [15]: > 100 µM (inactive)
GI50 [20]: > 100 µM (inactive)
GI50 [16]: > 100 µM (inactive)
GI50 [17]: > 100 µM (inactive)
GI50 [18]: > 10 µM (inactive)

CNC1C(OC2C(OC3C(O)C(O)C(O)C(O)C3O)OC(C)C2(O)CO)OC(CO)C(O)C1O.N=C(N)N.NC(=O)O (configuration not stated)
GI50 [1]: > 100 µM (inactive)
GI50 [2]: > 100 µM (inactive)
GI50 [3]: > 100 µM (inactive)
GI50 [4]: > 100 µM (inactive)
GI50 [5]: > 100 µM (inactive)
GI50 [6]: > 100 µM (inactive)
GI50 [19]: > 100 µM (inactive)
GI50 [7]: > 100 µM (inactive)
GI50 [8]: > 100 µM (inactive)
GI50 [9]: > 100 µM (inactive)
GI50 [10]: > 100 µM (inactive)
GI50 [11]: > 100 µM (inactive)
GI50 [12]: > 100 µM (inactive)
GI50 [14]: > 100 µM (inactive)
GI50 [15]: > 100 µM (inactive)
GI50 [20]: > 100 µM (inactive)
GI50 [16]: > 100 µM (inactive)
GI50 [17]: > 100 µM (inactive)
GI50 [18]: > 100 µM (inactive)

C=C1CC[C@@H]2[C@](C)(COC(=O)CCC(=O)O)CCC[C@@]2(C)[C@@H]1CCC1=CC(=O)OC1
GI50 [1]: > 100 µM (inactive)
GI50 [2]: > 100 µM (inactive)
GI50 [4]: > 10 µM (inactive)
GI50 [5]: > 100 µM (inactive)
GI50 [6]: > 100 µM (inactive)
GI50 [19]: > 100 µM (inactive)
GI50 [7]: > 100 µM (inactive)
GI50 [8]: > 100 µM (inactive)
GI50 [9]: > 100 µM (inactive)
GI50 [10]: > 100 µM (inactive)
GI50 [11]: > 100 µM (inactive)
GI50 [12]: > 100 µM (inactive)
GI50 [13]: > 100 µM (inactive)
GI50 [14]: > 100 µM (inactive)
GI50 [15]: > 100 µM (inactive)
GI50 [20]: > 100 µM (inactive)
GI50 [16]: > 100 µM (inactive)
GI50 [17]: > 100 µM (inactive)
GI50 [18]: > 100 µM (inactive)

CC1(C)CN=C(c2ccc3ccccc3c2O)N1
GI50 [1]: > 100 µM (inactive)
GI50 [2]: > 100 µM (inactive)
GI50 [3]: > 100 µM (inactive)
GI50 [4]: > 100 µM (inactive)
GI50 [5]: > 100 µM (inactive)
GI50 [19]: > 100 µM (inactive)
GI50 [7]: > 100 µM (inactive)
GI50 [8]: > 100 µM (inactive)
GI50 [9]: > 100 µM (inactive)
GI50 [10]: > 100 µM (inactive)
GI50 [11]: > 100 µM (inactive)
GI50 [12]: > 100 µM (inactive)
GI50 [13]: > 100 µM (inactive)
GI50 [14]: > 100 µM (inactive)
GI50 [15]: > 100 µM (inactive)
GI50 [20]: > 100 µM (inactive)
GI50 [16]: > 100 µM (inactive)
GI50 [17]: > 100 µM (inactive)
GI50 [18]: > 100 µM (inactive)
